Values of other authors, collected in PubChem BioAssay AID1259409 (Chemical Carcinogenesis Research Information System (CCRIS), 2018).

Tested on: rodent chemically induced tumor inhibition, incidence and multiplicity
Assay: CCRIS tumor inhibitor studies

In the case of COc1cc(/C=C/C(=O)CC(=O)/C=C/c2ccc(O)c(OC)c2)ccc1O, the “tumour outcome (control, treated, inhibition, significance)” value (Carcinogen: 1,2-DIMETHYLHYDRAZINE [540-73-8], Species: RAT, Strain/Sex: WISTAR, Target Tissue: Type of Lesion: COLON, Dose [Carcinogen]: 20 MG/KG) is given as 81.3%, 61%, 25%, p<0.05, the “tumour outcome (control, treated, inhibition, significance)” value (Carcinogen: 2,2'-DIHYDROXY-DI-N-PROPYLNITROSAMINE, 53609-64-6, N-ETHYL-N-HYDROXYETHYLNITROSAMINE, 13147-25-6, 3,2'-DIMETHYL-1,4-, Carcinogen: 2,2'-DIHYDROXY-DI-N-PROPYLNITROSAMINE, 53609-64-6, N-ETHYL-N-HYDROXYETHYLNITROSAMINE, 13147-25-6, 3,2'-DIMETHYL-1,4-, Dose [Inhibitor]: 0, 1% IN DIET FOR 4 WK BEGINNING 1 D PRIOR TO FIRST CARCINOGEN DOSE (STUDY DURATION: 36 WK), Route [Inhibitor]: ORAL, Species: RAT, Strain/Sex: F344/MALE, Target Tissue: Type of Lesion: KIDNEY: ADENOMA, Dose [Carcinogen]: 1000 MG/KG BW DHPN TWICE, 1500 MG/KG EHEN TWICE, 75 MG/KG BW DMAB 3 TIMES, SEQUENTIALLY OVER 3 WK, Promoter: NONE USED) is given as 6/10 (60%), 6/13 (46%), 23%, not significant and the “tumour outcome (control, treated, inhibition, significance)” value (Carcinogen: 2,2'-DIHYDROXY-DI-N-PROPYLNITROSAMINE, 53609-64-6, N-ETHYL-N-HYDROXYETHYLNITROSAMINE, 13147-25-6, 3,2'-DIMETHYL-1,4-, Carcinogen: 2,2'-DIHYDROXY-DI-N-PROPYLNITROSAMINE, 53609-64-6, N-ETHYL-N-HYDROXYETHYLNITROSAMINE, 13147-25-6, 3,2'-DIMETHYL-1,4-, Dose [Inhibitor]: 0, 1% IN DIET FOR 4 WK BEGINNING 1 D PRIOR TO FIRST CARCINOGEN DOSE (STUDY DURATION: 36 WK), Route [Inhibitor]: ORAL, Species: RAT, Strain/Sex: F344/MALE, Target Tissue: Type of Lesion: LUNG: ADENOMA, Dose [Carcinogen]: 1000 MG/KG BW DHPN TWICE, 1500 MG/KG EHEN TWICE, 75 MG/KG BW DMAB 3 TIMES, SEQUENTIALLY OVER 3 WK, Promoter: NONE USED) is given as 5/10 (50%), 10/13 (77%), -54%, not significant. For the same molecule, the “tumour outcome (control, treated, inhibition, significance)” value (Carcinogen: 4-NITROQUINOLINE-1-OXIDE, 56-57-5, Dose [Inhibitor]: 0, 500 PPM IN DIET FOR 10 WK BEGINNING 1 WK PRIOR TO CARCINOGEN TREATMENT (STUDY DURATION: 32 WK), Route [Inhibitor]: ORAL, Species: RAT, Strain/Sex: F344/MALE, Target Tissue: Type of Lesion: TONGUE: CARCINOMA, Dose [Carcinogen]: 20 PPM IN DRINKING WATER FOR 8 WK, Promoter: NONE USED) was 13/24 (54%), 1/19 (5%), 91%, p<0.05, the “tumour outcome (control, treated, inhibition, significance)” value (Carcinogen: 4-NITROQUINOLINE-1-OXIDE, 56-57-5, Dose [Inhibitor]: 0, 500 PPM IN DIET FOR 10 WK BEGINNING 1 WK PRIOR TO CARCINOGEN TREATMENT (STUDY DURATION: 32 WK), Route [Inhibitor]: ORAL, Species: RAT, Strain/Sex: F344/MALE, Target Tissue: Type of Lesion: TONGUE: PAPILLOMA, Dose [Carcinogen]: 20 PPM IN DRINKING WATER FOR 8 WK, Promoter: NONE USED) was 4/24 (17%), 0/19 (0%), 100%, not significant and the “tumour outcome (control, treated, inhibition, significance)” value (Carcinogen: 4-NITROQUINOLINE-1-OXIDE, 56-57-5, Dose [Inhibitor]: 0, 500 PPM IN DIET FOR 22 WK BEGINNING 1 WK POST CARCINOGEN TREATMENT (STUDY DURATION: 32 WK), Route [Inhibitor]: ORAL, Species: RAT, Strain/Sex: F344/MALE, Target Tissue: Type of Lesion: TONGUE: CARCINOMA, Dose [Carcinogen]: 20 PPM IN DRINKING WATER FOR 8 WK, Promoter: NONE USED) was 13/24 (54%), 3/20 (15%), 72%, p<0.05. The “tumour outcome (control, treated, inhibition, significance)” value (Carcinogen: 4-NITROQUINOLINE-1-OXIDE, 56-57-5, Dose [Inhibitor]: 0, 500 PPM IN DIET FOR 22 WK BEGINNING 1 WK POST CARCINOGEN TREATMENT (STUDY DURATION: 32 WK), Route [Inhibitor]: ORAL, Species: RAT, Strain/Sex: F344/MALE, Target Tissue: Type of Lesion: TONGUE: PAPILLOMA, Dose [Carcinogen]: 20 PPM IN DRINKING WATER FOR 8 WK, Promoter: NONE USED) was 4/24 (17%), 2/20 (10%), 41%, not significant, the “tumour outcome (control, treated, inhibition, significance)” value (Carcinogen: 7,12-DIMETHYLBENZ[A]ANTHRACENE, 57-97-6, Dose [Inhibitor]: 0: 5% IN DIET FOR DURATION OF STUDY BEGINNING 2 WK PRIOR TO CARCINOGEN DOSE (STUDY DURATION: 6 MO), Route [Inhibitor]: ORAL, Species: RAT, Strain/Sex: WISTAR/FEMALE, Target Tissue: Type of Lesion: MAMMARY GLAND: TUMOR, Dose [Carcinogen]: 10 MG IN PEANUT OIL INJECTED INTO SUBCUTANEOUS POUCH CREATED IN THE 5TH AND 6TH MAMMARY GLAND REGION, Promoter: NONE USED) was 20/20 (100%), 5/20 (25%), 75%, p<0.001 and the “tumour outcome (control, treated, inhibition, significance)” value (Carcinogen: 7,12-DIMETHYLBENZ[A]ANTHRACENE, 57-97-6, Dose [Inhibitor]: 0, 2% IN DIET FOR 22 WK BEGINNING 2 WK PRIOR TO CARCINOGEN DOSE (STUDY DURATION: 22 WK), Route [Inhibitor]: ORAL, Species: MOUSE, Strain/Sex: SENCAR/FEMALE, Target Tissue: Type of Lesion: LYMPHATIC SYSTEM:LYMPHOMA OR LEUKEMIA, Dose [Carcinogen]: 1 MG IN 0.1 ML CORN OIL 1/WK FOR 5 WK, Promoter: NONE USED) was 45%, 21%, 53%, p<0.05. For the same molecule, the “tumour outcome (control, treated, inhibition, significance)” value (Carcinogen: 7,12-DIMETHYLBENZ[A]ANTHRACENE, 57-97-6, Dose [Inhibitor]: 0, 2% IN DIET FOR 22 WK BEGINNING 2 WK PRIOR TO CARCINOGEN DOSE (STUDY DURATION: 22 WK), Route [Inhibitor]: ORAL, Species: MOUSE, Strain/Sex: SENCAR/FEMALE, Target Tissue: Type of Lesion: MAMMARY GLAND: TUMOR, Dose [Carcinogen]: 1 MG IN 0.1 ML CORN OIL 1/WK FOR 5 WK, Promoter: NONE USED) was 68%, 78%, -15%, not significant, the “tumour outcome (control, treated, inhibition, significance)” value (Carcinogen: 7,12-DIMETHYLBENZ[A]ANTHRACENE, 57-97-6, Dose [Inhibitor]: 0, 2% IN DIET FOR 22 WK BEGINNING 2 WK PRIOR TO CARCINOGEN DOSE (STUDY DURATION: 22 WK), Route [Inhibitor]: ORAL, Species: MOUSE, Strain/Sex: SENCAR/FEMALE, Target Tissue: Type of Lesion: OVARY:TUMOR, Dose [Carcinogen]: 1 MG IN 0.1 ML CORN OIL 1/WK FOR 5 WK, Promoter: NONE USED) was 20%, 8%, 60%, p<0.1 and the “tumour outcome (control, treated, inhibition, significance)” value (Carcinogen: 7,12-DIMETHYLBENZ[A]ANTHRACENE, 57-97-6, Dose [Inhibitor]: 0, 3 UMOL IN ACETONE 1/WK FOR 10 WK APPLIED 5 MIN PRIOR TO EACH CARCINOGEN DOSE (STUDY DURATION: 26 WK), Route [Inhibitor]: DERMAL, Species: MOUSE, Strain/Sex: CD-1/FEMALE, Target Tissue: Type of Lesion: SKIN: TUMORS, Dose [Carcinogen]: 2 NMOL 1/WK FOR 10 WK, Promoter: 12-O-TETRADECANOYLPHORBOL-13-ACETATE, 16561-29-8) was 100%, 98%, 2%, not calculated. For the same molecule, the “tumour outcome (control, treated, inhibition, significance)” value (Carcinogen: 7,12-DIMETHYLBENZ[A]ANTHRACENE, 57-97-6, Dose [Inhibitor]: 0, 10 UMOL IN ACETONE 1/WK FOR 10 WK APPLIED 5 MIN PRIOR TO EACH CARCINOGEN DOSE (STUDY DURATION: 26 WK), Route [Inhibitor]: DERMAL, Species: MOUSE, Strain/Sex: CD-1/FEMALE, Target Tissue: Type of Lesion: SKIN: TUMORS, Dose [Carcinogen]: 2 NMOL 1/WK FOR 10 WK, Promoter: 12-O-TETRADECANOYLPHORBOL-13-ACETATE, 16561-29-8) was 100%, 98%, 2%, not calculated and the “tumour outcome (control, treated, inhibition, significance)” value (Carcinogen: 7,12-DIMETHYLBENZ[A]ANTHRACENE, 57-97-6, Dose [Inhibitor]: 10 UMOL IN 200 µL ACETONE 2/WK FOR 19 WK BEGINNING 1 WK POST CARCINOGEN DOSE (STUDY DURATION: 20 WK), Route [Inhibitor]: DERMAL, Species: MOUSE, Strain/Sex: CD-1/FEMALE, Target Tissue: Type of Lesion: SKIN: PAPILLOMA, Dose [Carcinogen]: 200 NMOL IN 200 µL ACETONE ONCE, Promoter: 12-O-TETRADECANOYLPHORBOL-13-ACETATE, 16561-29-8) was 68%, 0%, 100%, not calculated.
